From paper doi:10.1101/306035v1 (biorxiv, 2018) come the findings set out here.

The structures appear in SMILES notation. pKd: −log10 of the molar value.

The target of the experiment is T1, DcaPTrunc (Acinetobacter baumannii, UniProt A0A0D5YFT0).
T1 sequence (A0A0D5YFT0 89-434): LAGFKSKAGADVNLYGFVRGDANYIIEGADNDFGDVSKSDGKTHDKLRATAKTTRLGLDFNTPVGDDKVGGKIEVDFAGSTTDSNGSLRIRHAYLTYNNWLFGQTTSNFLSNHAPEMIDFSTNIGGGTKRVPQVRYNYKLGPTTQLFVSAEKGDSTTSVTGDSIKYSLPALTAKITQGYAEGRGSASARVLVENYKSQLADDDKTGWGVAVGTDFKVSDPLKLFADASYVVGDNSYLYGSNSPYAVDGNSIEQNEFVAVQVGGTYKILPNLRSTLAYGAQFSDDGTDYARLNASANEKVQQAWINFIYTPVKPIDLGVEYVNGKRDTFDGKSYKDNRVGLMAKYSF
The experiment is described as follows: biochemical.

Take `O=C(O)c1ccccc1C(=O)O` [o-phthalic acid]: the pKd (commonly the Kd on a negative log10 scale, so that one unit is a factor of ten) was about 2.05.
